US12522588B2, “Herbicidal compounds” (SYNGENTA CROP PROTECTION AG, priority 2020, dated 2026)

What was measured:
Assay type in all cases: in vivo
[1] = test system: Abutilon theophrasti (ABUTH); assay: Post-emergence test, glasshouse; conditions: 250 g/ha
Method: (§1) Seeds of a variety of test species are sown in standard soil in pots Amaranthus retoflexus (AMARE), Abutilon theophrasti (ABUTH), Setaria faberi (SETFA), Echinochloa crus-galli (ECHCG), Ipomoea hederacea (IPOHE)). After cultivation for one day (pre-emergence) or after 8 days cultivation (post-emergence) under controlled conditions in a glasshouse (at 24/16° C., day/night; 14 hours light; 65% humidity), the plants are sprayed with an aqueous spray solution derived from the formulation of the technical active ingredient in acetone/water (50:50) solution containing 0.5% Tween 20 (polyoxyethelyene sorbitan monolaurate, CAS RN 9005-64-5). Compounds are applied at 250 g/ha unless otherwise stated. The test plants are then grown in a glasshouse under controlled conditions in a glasshouse (at 24/16° C., day/night; 14 hours light; 65% humidity) and watered twice daily. After 13 days for pre and post-emergence, the test is evaluated for the percentage damage caused to the plant. The biological activities are shown in the following table on a five-point scale (5=81-100%; 4=61-80%; 3=41-60%; 2=21-40%; 1=0-20%).

[2] = test system: Amaranthus retoflexus (AMARE); assay: Post-emergence test, glasshouse; conditions: 250 g/ha
Method: as §1

[3] = test system: Ipomoea hederacea (IPOHE); assay: Post-emergence test, glasshouse; conditions: 250 g/ha
Method: as §1

[4] = test system: Echinochloa crus-galli (ECHCG); assay: Post-emergence test, glasshouse; conditions: 250 g/ha
Method: as §1

Setaria faberi (SETFA) [5] = assay: Post-emergence test, glasshouse; conditions: 250 g/ha
Method: as §1

[6] = test system: Abutilon theophrasti (ABUTH); assay: Pre-emergence test, glasshouse; conditions: 250 g/ha; for percentage damage caused to the plant, ABUTH: evaluated after 13 days, Table B2; for percentage damage caused to the plant, LABUTH: comparative test
Method: as §1

[7] = test system: Amaranthus retoflexus (AMARE); assay: Pre-emergence test, glasshouse; conditions: 250 g/ha
Method: as §1

[8] = test system: Ipomoea hederacea (IPOHE); assay: Pre-emergence test, glasshouse; conditions: 250 g/ha
Method: as §1

[9] = test system: Echinochloa crus-galli (ECHCG); assay: Pre-emergence test, glasshouse; conditions: 250 g/ha
Method: as §1

Setaria faberi (SETFA) [10] = assay: Pre-emergence test, glasshouse; conditions: 250 g/ha
Method: as §1

[11] = evaluated after 13 days, Table B1
[12] = evaluated after 13 days, Table B2

Compound	percentage damage caused to the plant, ABUTH [1, 11]	percentage damage caused to the plant, AMARE [2, 11]	percentage damage caused to the plant, IPOHE [3, 11]	percentage damage caused to the plant, ECHCG [4, 11]	percentage damage caused to the plant, SETFA (Setaria faberi (SETFA) [5]; [11])	percentage damage caused to the plant, ABUTH [6]	percentage damage caused to the plant, AMARE [7, 12]	percentage damage caused to the plant, IPOHE [8, 12]	percentage damage caused to the plant, ECHCG [9, 12]	percentage damage caused to the plant, SETFA (Setaria faberi (SETFA) [10]; [12])	percentage damage caused to the plant, ABUTH ([1]; comparative test)	percentage damage caused to the plant, AMARE ([2]; comparative test)	percentage damage caused to the plant, IPOHE ([3]; comparative test)	percentage damage caused to the plant, ECHCG ([4]; comparative test)	percentage damage caused to the plant, SETFA (Setaria faberi (SETFA) [5]; comparative test)	percentage damage caused to the plant, LABUTH [6]	percentage damage caused to the plant, AMARE ([7]; comparative test)	percentage damage caused to the plant, IPOHE ([8]; comparative test)	percentage damage caused to the plant, ECHCG ([9]; comparative test)	percentage damage caused to the plant, SETFA (Setaria faberi (SETFA) [10]; comparative test)
Cc1ccc(-n2nc(C(F)(F)F)cc2Oc2ncc(Cl)cn2)nn1 [Compound 1.012]	1 (1=0-20%)	2 (2=21-40%)	1 (1=0-20%)	1 (1=0-20%)	1 (1=0-20%)	1 (1=0-20%)	3 (3=41-60%)	1 (1=0-20%)	1 (1=0-20%)	1 (1=0-20%)	–	–	–	–	–	–	–	–	–	–
Cc1cc(Oc2ncc(Cl)cn2)n(-c2ccc(Cl)cc2)n1 [Compound C2, reference compound]	–	–	–	–	–	–	–	–	–	–	1 (1=0-20%)	3 (3=41-60%)	1 (1=0-20%)	2 (2=21-40%)	2 (2=21-40%)	1 (1=0-20%)	1 (1=0-20%)	1 (1=0-20%)	1 (1=0-20%)	1 (1=0-20%)
FC(F)(F)c1cc(Oc2ncc(Cl)cn2)n(-c2ccc(Cl)cc2)n1 [Compound 1.002]	3 (3=41-60%)	5 (5=81-100%)	4 (4=61-80%)	5 (5=81-100%)	5 (5=81-100%)	2 (2=21-40%)	5 (5=81-100%)	1 (1=0-20%)	5 (5=81-100%)	5 (5=81-100%)	3 (3=41-60%)	5 (5=81-100%)	4 (4=61-80%)	5 (5=81-100%)	5 (5=81-100%)	2 (2=21-40%)	5 (5=81-100%)	1 (1=0-20%)	5 (5=81-100%)	5 (5=81-100%)
FC(F)(F)c1cc(Oc2ncc(Cl)cn2)n(-c2cccc(Cl)c2)n1 [Compound 1.004]	1 (1=0-20%)	5 (5=81-100%)	4 (4=61-80%)	3 (3=41-60%)	3 (3=41-60%)	1 (1=0-20%)	5 (5=81-100%)	1 (1=0-20%)	2 (2=21-40%)	3 (3=41-60%)	–	–	–	–	–	–	–	–	–	–
